According to patent publication US10112937B2, “P2X7 modulators and methods of use” (Janssen Pharmaceutica NV, priority 2013, dated 2018):

Experiments:
Format in all cases: cell-based
human P2X7 [1] = target: T1, human P2X7 (Homo sapiens (Human), UniProt Q99572); assay: P2X7 antagonism in human PBMCs (IL-1β release after LPS + Bz-ATP, ELISA)
rat P2X7 = rat P2X7 (Rattus norvegicus (Rat), UniProt Q64663); assay: Ca2+ flux (FLIPR) in 1321N1 cells expressing recombinant rat P2X7;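 further: Calcium-4 dye fluorescence change read 180 s after agonist addition, with cells preincubated 30 min with compound and dye in 96-well plates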
Sequence of rat P2X7 (Q64663 whole entry): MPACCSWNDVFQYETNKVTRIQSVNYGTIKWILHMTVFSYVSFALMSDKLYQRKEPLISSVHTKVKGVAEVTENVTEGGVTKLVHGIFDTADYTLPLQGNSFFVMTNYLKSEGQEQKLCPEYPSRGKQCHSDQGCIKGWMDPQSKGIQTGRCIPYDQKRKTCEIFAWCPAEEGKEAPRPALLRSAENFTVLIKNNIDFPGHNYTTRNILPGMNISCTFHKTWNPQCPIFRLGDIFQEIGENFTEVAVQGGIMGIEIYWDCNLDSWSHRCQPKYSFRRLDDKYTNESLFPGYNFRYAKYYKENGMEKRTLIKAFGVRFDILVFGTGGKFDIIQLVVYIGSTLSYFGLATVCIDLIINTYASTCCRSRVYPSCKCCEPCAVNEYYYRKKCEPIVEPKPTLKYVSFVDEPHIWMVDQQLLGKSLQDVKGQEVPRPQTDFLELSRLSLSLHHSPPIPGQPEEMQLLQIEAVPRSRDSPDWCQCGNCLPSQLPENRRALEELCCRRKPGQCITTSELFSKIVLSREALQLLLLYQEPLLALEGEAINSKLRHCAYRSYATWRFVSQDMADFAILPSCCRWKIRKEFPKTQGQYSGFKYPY
Experimental: P2X7 Antagonism in Recombinant Human P2X7 Cells or Recombinant Rat P2X7 Cells: (a) Ca^2+ Flux and (b) Radioligand Binding
1321N1 cells expressing the recombinant human or rat P2X7 channel was cultured in HyQ DME/(HyClone/Dulbecco's Modified Eagle Medium) high glucose supplemented with 10% Fetal Bovine Serum (FBS) and appropriate selection marker. Cells were seeded at a density of 25000 cells/well (96-well clear bottom black walled plates) in 100 μl volume/well. On the day of the experiment, cell plates were washed with assay buffer, containing (in mM): 130 NaCl, 2 KCl, 1 CaCl2, 1 MgCl2, 10 HEPES, 5 glucose; pH 7.40 and 300 mOs. After the wash, cells were loaded with the Calcium-4 dye (Molecular Device) and incubated in the dark for 60 minutes. Test compounds were prepared at 250× the test concentration in neat DMSO. Intermediate 96-well compound plates were prepared by transferring 1.2 μL of the compound into 300 μL of assay buffer. A further 3× dilution occurred when transferring 50 μL/well of the compound plate to 100 μL/well in the cell plate. Cells were incubated with test compounds and dye for 30 minutes. […] The fluorescence change was measured 180 seconds after adding the agonist.

human P2X7 [2] = target: T1, human P2X7; assay: Ca2+ flux (FLIPR) in 1321N1 cells expressing recombinant human P2X7; settings: 1321N1 cells, recombinant human P2X7, 250 μM BzATP;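 further: cells loaded with Calcium-4 dye, preincubated with test compound for 30 min, fluorescence change read 180 s after agonist addition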
[3] = human PBMCs, test compound 10 μM
[4] = 1321N1 cells, recombinant rat P2X7, 250 μM BzATP
[5] = 10 μM test compound, human PBMCs, LPS + Bz-ATP

T1 sequence (Q99572 whole entry): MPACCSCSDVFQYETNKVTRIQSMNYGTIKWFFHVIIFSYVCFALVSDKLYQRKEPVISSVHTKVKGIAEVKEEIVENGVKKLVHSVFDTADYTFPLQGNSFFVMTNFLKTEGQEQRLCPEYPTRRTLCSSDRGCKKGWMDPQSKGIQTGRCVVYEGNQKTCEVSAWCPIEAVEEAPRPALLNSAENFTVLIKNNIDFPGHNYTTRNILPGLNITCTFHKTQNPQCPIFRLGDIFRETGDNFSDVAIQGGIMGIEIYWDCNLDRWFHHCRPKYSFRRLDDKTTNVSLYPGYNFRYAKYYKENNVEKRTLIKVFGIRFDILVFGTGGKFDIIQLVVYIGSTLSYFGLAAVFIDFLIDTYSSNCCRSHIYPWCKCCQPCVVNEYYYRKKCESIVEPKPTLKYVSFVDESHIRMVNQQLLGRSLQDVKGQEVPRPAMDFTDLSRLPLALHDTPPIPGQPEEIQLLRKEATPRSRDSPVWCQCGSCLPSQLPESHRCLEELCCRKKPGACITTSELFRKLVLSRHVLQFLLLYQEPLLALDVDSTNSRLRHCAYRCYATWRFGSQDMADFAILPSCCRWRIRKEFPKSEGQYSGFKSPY

PBMC 10 μM (% control) (human P2X7 [1]; [3]) | IC50 (rat P2X7; [4]) [nM] | SMILES | also measured
−2.7 | 56.6 | Cc1cc(-n2nnc3c2CCN(C(=O)c2cccc(C(F)(F)F)c2Cl)[C@@H]3C)ncc1F (single isomer, unassigned) [Example 382, (R*)-(2-chloro-3-(trifluoromethyl)phenyl)(1-(5-fluoro-4-methylpyridin-2-yl)-4-methyl-6,7-dihydro-1H-[1,2,3]triazolo[4,5-c]pyridin-5(4H)-yl)methanone] | 
 | 122 | CC1c2ncn(-c3cnccn3)c2CCN1C(=O)c1cccc(C(F)(F)F)c1F (stereo not shown) [Example 14, (2-Fluoro-3-(trifluoromethyl)phenyl)(4-methyl-1-(pyrazin-2-yl)-6,7-dihydro-1H-imidazo[4,5-c]pyridin-5(4H)-yl)methanone] | 
6.4 | 113 | CC1c2ncn(-c3ncccn3)c2CCN1C(=O)c1cccc(C(F)(F)F)c1Cl (stereo not shown) [Example 23, (2-Chloro-3-(trifluoromethyl)phenyl)(4-methyl-1-(pyrimidin-2-yl)-6,7-dihydro-1H-imidazo[4,5-c]pyridin-5(4H)-yl)methanone] | 
 | 333 | CN(C)CC1c2ncn(-c3ccccn3)c2CCN1C(=O)c1cccc(C(F)(F)F)c1Cl (stereo not shown) [Example 31, 1-(5-{[2-Chloro-3-(trifluoromethyl)phenyl]carbonyl}-1-pyridin-2-yl-4,5,6,7-tetrahydro-1H-imidazo[4,5-c]pyridin-4-yl)-N,N-dimethylmethanamine] | 
1.9 | 47.5 | O=C(c1cccc(C(F)(F)F)c1Cl)N1CCc2c(ncn2-c2ccccn2)C1CF (stereo not shown) [Example 32, (2-Chloro-3-(trifluoromethyl)phenyl)(4-(fluoromethyl)-1-(pyridin-2-yl)-6,7-dihydro-1H-imidazo[4,5-c]pyridin-5(4H)-yl)methanone] | 
 | 279 | CN(C)C(=O)C1c2ncn(-c3ccccn3)c2CCN1C(=O)c1cccc(C(F)(F)F)c1Cl (stereo not shown) [Example 34, 5-{[2-Chloro-3-(trifluoromethyl)phenyl]carbonyl}-N,N-dimethyl-1-pyridin-2-yl-4,5,6,7-tetrahydro-1H-imidazo[4,5-c]pyridine-4-carboxamide] | 
−3.6 | 3470 | CC1c2ncn(-c3ccc(F)cn3)c2CCN1C(=O)c1cccc(C(F)(F)F)c1F (stereo not shown) [Example 262, (2-fluoro-3-(trifluoromethyl)phenyl)(1-(5-fluoropyridin-2-yl)-4-methyl-6,7-dihydro-1H-imidazo[4,5-c]pyridin-5(4H)-yl)methanone] | 
4.1 | 234 | Cc1cc(-n2nnc3c2CCN(C(=O)c2cccc(C(F)(F)F)c2Cl)C3C)ncc1F (stereo not shown) [Example 381, (2-chloro-3-(trifluoromethyl)phenyl)(1-(5-fluoro-4-methylpyridin-2-yl)-4-methyl-6,7-dihydro-1H-[1,2,3]triazolo[4,5-c]pyridin-5(4H)-yl)methanone] | 

Second part, the compound before the results:

SMILES | PBMC 10 μM (% control) (human P2X7 [1]; [3]) | IC50 (rat P2X7; [4]) [nM] | also measured
Cc1nc(-n2nnc3c2CCN(C(=O)c2cccc(C(F)(F)F)c2Cl)C3C)ncc1F (single isomer, unassigned) [Example 306, (S*)-(2-chloro-3-(trifluoromethyl)phenyl)(1-(5-fluoro-4-methylpyrimidin-2-yl)-4-methyl-6,7-dihydro-1H-[1,2,3]triazolo[4,5-c]pyridin-5(4H)-yl)methanone] | 2.5 | 5980 | PBMC 10 μM (% control) (human P2X7 [1]; test compound 10 μM, LPS 30 ng/ml + 0.5 mM Bz-ATP): 2.5 % control; IC50 (rat P2X7; 250 μM BzATP, Calcium-4 dye): 5980 nM
Cc1ccnc(-n2nnc3c2CCN(C(=O)c2ccnc(C(F)(F)F)c2F)[C@@H]3C)c1 (single isomer, unassigned) [Example 356, (R*)-(3-fluoro-2-(trifluoromethyl)pyridin-4-yl)(4-methyl-1-(4-methylpyridin-2-yl)-6,7-dihydro-1H-[1,2,3]triazolo[4,5-c]pyridin-5(4H)-yl)methanone] | −5.9 | 120 | 
Cc1ccnc(-n2nnc3c2CCN(C(=O)c2ccnc(C(F)(F)F)c2F)[C@H]3C)c1 (single isomer, unassigned) [Example 357, (S*)-(3-fluoro-2-(trifluoromethyl)pyridin-4-yl)(4-methyl-1-(4-methylpyridin-2-yl)-6,7-dihydro-1H-[1,2,3]triazolo[4,5-c]pyridin-5(4H)-yl)methanone] | 42.4 | 16200 | 
Cc1cccc(-n2nnc3c2CCN(C(=O)c2cccc(C(F)(F)F)c2F)[C@H]3C)n1 (single isomer, unassigned) [Example 387, (S*)-(2-fluoro-3-(trifluoromethyl)phenyl)(4-methyl-1-(6-methylpyridin-2-yl)-6,7-dihydro-1H-[1,2,3]triazolo[4,5-c]pyridin-5(4H)-yl)methanone] | 8.4 | 161 | 
O=C(c1cccc(C(F)(F)F)c1Cl)N1CCc2c(ncn2-c2ccccn2)C1 [Example 1, (2-Chloro-3-(trifluoromethyl)phenyl)(1-(pyridin-2-yl)-6,7-dihydro-1H-imidazo[4,5-c]pyridin-5(4H)-yl)methanone] |  |  | IC50 (human P2X7 [2]): 4.1 nM
CCOC(=O)C1c2ncn(-c3ccccc3)c2CCN1C(=O)c1cccc(Cl)c1Cl (stereo not shown) [Example 27, Ethyl 5-(2,3-dichlorobenzoyl)-1-phenyl-4,5,6,7-tetrahydro-1H-imidazo[4,5-c]pyridine-4-carboxylate] |  | 2810 | 
O=C(OCC1c2ncn(-c3ccccc3)c2CCN1C(=O)c1cccc(C(F)(F)F)c1Cl)c1cccc(C(F)(F)F)c1Cl (stereo not shown) [Example 36, (5-{[2-Chloro-3-(trifluoromethyl)phenyl]carbonyl}-1-phenyl-4,5,6,7-tetrahydro-1H-imidazo[4,5-c]pyridin-4-yl)methyl 2-chloro-3-(trifluoromethyl)benzoate] |  |  | IC50 (human P2X7 [2]): 3390 nM
CC1(C)c2ncn(-c3ccccc3)c2CCN1C(=O)c1cccc(C(F)(F)F)c1Cl [Example 53, 5-{[2-Chloro-3-(trifluoromethyl)phenyl]carbonyl}-4,4-dimethyl-1-phenyl-4,5,6,7-tetrahydro-1H-imidazo[4,5-c]pyridine] |  | 3150 | PBMC 1 μM (% control) (human P2X7 [1]; human PBMCs, test compound 1 μM): 99.0 % control
O=C(c1cccc(C(F)(F)F)c1Cl)N1CCc2c(nnn2-c2ccccn2)C1 [Example 63, 5-{[2-Chloro-3-(trifluoromethyl)phenyl]carbonyl}-1-pyridin-2-yl-4,5,6,7-tetrahydro-1H-[1,2,3]triazolo[4,5-c]pyridine] |  | 1450 | 
O=C(c1cccc(C(F)(F)F)c1F)N1CCc2c(ncn2-c2ccc(F)cn2)C1 [Example 314, (2-fluoro-3-(trifluoromethyl)phenyl)(1-(5-fluoropyridin-2-yl)-6,7-dihydro-1H-imidazo[4,5-c]pyridin-5(4H)-yl)methanone] |  |  | IC50 (human P2X7 [2]): 3540 nM
Cc1ccnc(-n2nnc3c2CCN(C(=O)c2ccnc(C(F)(F)F)c2F)C3C)c1 (stereo not shown) [Example 355, (3-fluoro-2-(trifluoromethyl)pyridin-4-yl)(4-methyl-1-(4-methylpyridin-2-yl)-6,7-dihydro-1H-[1,2,3]triazolo[4,5-c]pyridin-5(4H)-yl)methanone] | −2.0 | 394 | 
Cc1cc(-n2nnc3c2CCN(C(=O)c2ccc(Cl)c(C(F)(F)F)c2)C3C)ncc1F (stereo not shown) [Example 364, (4-chloro-3-(trifluoromethyl)phenyl)(1-(5-fluoro-4-methylpyridin-2-yl)-4-methyl-6,7-dihydro-1H-[1,2,3]triazolo[4,5-c]pyridin-5(4H)-yl)methanone] | 4.8 | 5790 | 
Cc1cccc(-n2nnc3c2CCN(C(=O)c2cccc(C(F)(F)F)c2F)C3C)n1 (stereo not shown) [Example 385, (2-fluoro-3-(trifluoromethyl)phenyl)(4-methyl-1-(6-methylpyridin-2-yl)-6,7-dihydro-1H-[1,2,3]triazolo[4,5-c]pyridin-5(4H)-yl)methanone] | 12.4 | 57.8 | 
Cc1ccnc(-n2nnc3c2CCN(C(=O)c2cccc(Cl)c2C)C3C)c1 (stereo not shown) [Example 388, (3-chloro-2-methylphenyl)(4-methyl-1-(4-methylpyridin-2-yl)-6,7-dihydro-1H-[1,2,3]triazolo[4,5-c]pyridin-5(4H)-yl)methanone] | −18.8 | 2280 | 
CC(C)n1ccc(-n2nnc3c2C[C@H](C)N(C(=O)c2ccnc(C(F)(F)F)c2F)C3)n1 [Example 418, (S)-(3-fluoro-2-(trifluoromethyl)pyridin-4-yl)(1-(1-isopropyl-1H-pyrazol-3-yl)-6-methyl-6,7-dihydro-1H-[1,2,3]triazolo[4,5-c]pyridin-5(4H)-yl)methanone] |  |  | PBMC 10 μM (% control) (human P2X7 [1]; [5]): 97.6 % control
C[C@H]1Cc2c(nnn2-c2ccsc2)CN1C(=O)c1cccc(C(F)(F)F)c1Cl [Example 420, (S)-(2-chloro-3-(trifluoromethyl)phenyl)(6-methyl-1-(thiophen-3-yl)-6,7-dihydro-1H-[1,2,3]triazolo[4,5-c]pyridin-5(4H)-yl)methanone] |  |  | PBMC 10 μM (% control) (human P2X7 [1]; [5]): 0.0 % control
C[C@H]1Cc2c(nnn2-c2ncc(O)cn2)CN1C(=O)c1ccnc(C(F)(F)F)c1F [Example 429, (S)-(3-fluoro-2-(trifluoromethyl)pyridin-4-yl)(1-(5-hydroxypyrimidin-2-yl)-6-methyl-6,7-dihydro-1H-[1,2,3]triazolo[4,5-c]pyridin-5(4H)-yl)methanone] |  |  | PBMC 10 μM (% control) (human P2X7 [1]; [5]): 2.3 % control
CC1c2n[nH]c(-c3cnccn3)c2CCN1C(=O)c1cccc(C(F)(F)F)c1Cl (stereo not shown) [Example 438, (2-chloro-3-(trifluoromethyl)phenyl)(7-methyl-3-(pyrazin-2-yl)-4,5-dihydro-2H-pyrazolo[3,4-c]pyridin-6(7H)-yl)methanone] |  |  | PBMC 10 μM (% control) (human P2X7 [1]; [5]): −10.8 % control; IC50 (rat P2X7; Ca2+ flux, 250 μM BzATP, rat P2X7 1321N1 cells): 482 nM
